Data: article PMC4942781, “A sodium channel inhibitor ISTX-I with a novel structure provides a new hint at the evolutionary link between two toxin folds” (Scientific Reports, 2016)
“Also recorded” adds a separate entry of the source. Bridge positions count the residues as written; N and C are the ends. Ends that are not written are not given here.

Experiments:
hNav1.6 = experiment: Whole-cell patch clamp, hNav1.6 in HEK293T cells; format: cell-based, human; settings: 10 μM ISTX-I; 50 ms step to -10 mV from -80 mV
Method: HEK293T (human embryonic kidney) cells were grown in DMEM containing 10% heat-inactivated FBS at 37 °C in a 5% CO2 incubator. The cDNA genes encoding human (h)Nav1.1, (h)Nav1.2, (h)Nav1.3, (h)Nav1.4, (h)Nav1.5, (h)Nav1.6 and (h)Nav1.7 were transiently transfected into HEK293T cells for electrophysiology using Lipofectamine-2000 (Invitrogen) in serum-reduced medium (Opti-MEM, Invitrogen) following the manufacturer’s instructions. The auxiliary subunits hβ1 and enhanced green florescent protein plasmids were cotransfected into HEK293T cells to increase the current density and efficiently select cells with green florescent protein for whole-cell patch-clamp recordings. After 12 h, the HEK293T cells were used for electrophysiological analysis.
(§1) DRG neurons with a large diameter (>[…]) and those with a relatively small diameter (<[…]) were chosen by measuring TTX-s and TTX-r currents, respectively. […] Potassium, calcium, and sodium currents were recorded in experimental cells using whole-cell patch-clamp recordings at room temperature, which were performed with an HEK EPC10 patch-clamp amplifier. […] Experimental data were acquired and analyzed using the programs patch master and Sigmaplot 9.0 (Sigma, USA). […]
(§2) Currents were recorded from experimental cells using whole-cell patch clamptechnique at room temperature (22–25 °C). […]

calcium channel = experiment: Whole-cell patch clamp, Cav currents in DRG neurons; format: cell-based, rat; settings: 20 μM ISTX-I, 150 ms step depolarization to +10 mV from −90 mV, Ba2+ as charge carrier
Method: Rat DRG cells were acutely dissociated from adult Sprague-Dawley rats[30]. Briefly, adult rats of either sex with body weights of approximately 200 g were killed by decapitation. The dorsal root ganglia were isolated quickly from the spinal cord and then transferred into Dulbecco’s modified Eagle’s medium (DMEM) containing trypsin I (0.15 mg/mL) and collagenase II (0.3 mg/mL) for incubation with an oscillation frequency of 200 rpm at 37 °C for 20 min. The trypsin inhibitor II-S (1 mg/mL) was added to terminate the reaction. […]
as §1, §2
25, MgCl2 12, HEPES 10, and D-glucose 10 (pH 7.2). Calcium channel currents were measured using Ba2+ as the charge carrier. […]

## LCSENGDCAADECCVDTVFEGDMVTRSCEKTTGNFTECPGLTPIA (disulfide 2-14, 8-28, 13-38) [ISTX-I]
hNav1.6
  inhibition of Nav1.6 currents: 10%
Calcium channel
  effect on calcium channels: no obvious effects; also recorded: No effects were detected
